Measurements: patent US10441627B2, “Method of treating prader-willi syndrome” (Ferring B.V., priority 2014, dated 2019)

Tests used:
[1] = tested on: human oxytocin (hOT) receptor vs human V2 (hV2) receptor; settings: ratio of EC50 values; from Table 2 in WO2009/122285; cited from earlier work
[2] = tested on: subjects with Prader-Willi Syndrome (PWS); experiment: Double-blind, placebo-controlled clinical trial of carbetocin intranasal spray in subjects with PWS; type: in vivo, human; settings: for Clinical Global Impression, Least-Squares Mean Change Carbetocin vs. Placebo: CGI-I 7-point clinician rating; for HPWSQ-R-C Behavior domain score, Least-Squares Mean Change Carbetocin vs. Placebo / HPWSQ-R-C Drive domain score, Least-Squares Mean Change Carbetocin vs. Placebo / HPWSQ-R-C Severity domain score, Least-Squares Mean Change Carbetocin vs. Placebo / HPWSQ-R-C total score, Least-Squares Mean Change Carbetocin vs. Placebo: clinician rated; for HPWSQ-R total score, Least-Squares Mean Change Carbetocin vs. Placebo / HPWSQ-R Behavior domain score, Least-Squares Mean Change Carbetocin vs. Placebo / HPWSQ-R Drive domain score, Least-Squares Mean Change Carbetocin vs. Placebo / HPWSQ-R Severity domain score, Least-Squares Mean Change Carbetocin vs. Placebo: parent/caregiver rated; for HPWSQ-R total score, Least-Squares Mean Change Carbetocin vs. Placebo: negative = improvement vs placebo
Protocol: A prospective, double-blind, placebo-controlled, parallel trial in subjects with PWS between 10 and 18 years of age with genetically confirmed diagnosis of PWS and a documented nutritional Phase 3 based on the criteria described in Miller et al, 2011 (Am J Med Genet A, 155A(5):1040-1049) was performed. The trial included a Screening Period, a 14-day Treatment Period, and a Follow-Up Period. Subjects, along with their parent/caregiver, were required to visit the investigational site 4 times over the course of the trial and participate in 2 phone call assessments. The trial schedule is listed below. • Visit 1: Screening Period (Day −7 to Day 0) • Visit 2: Baseline 1st day dosing on site (Day 1) • Visit 3: 2nd day dosing on site (Day 2) • Phone call assessment (Day 8±1) • Visit 4: End-of-Treatment Visit (Day 15) • Follow-up phone call (Day 19±3)
Following appropriate informed consent procedures, subjects underwent screening evaluations to determine eligibility before randomization. After randomization, efficacy measures and other assessments, including physical examination, vital signs, and collection of blood samples for clinical laboratory and pharmacokinetic evaluation, were performed at selected visits. Subjects were closely monitored for adverse events throughout the trial.
Prior to first dosing at the investigational site, parents/caregivers were trained on the proper use of the nasal spray device and procedures for investigational medicinal product (IMP) home delivery. Parents/caregivers were instructed to administer 3 intranasal spray pumps of blinded IMP per nostril 3 times daily before meals within the following intervals:
38 subjects, 10-18 years of age, with genetically confirmed diagnosis of PWS and documented nutritional phase 3 PWS criteria (based on Miller et al, 2011), were randomized. 36 subjects completed the study.
The carbetocin intranasal spray was prepared by dissolving […] in 0.9% sterile sodium chloride solution. Specifically, the preweighed carbetocin powder was reconstituted with the sodium chloride solution and subsequently transferred to a nasal spray device. Each spray pump actuation delivered a 50 μL volume of solution containing 1.6 mg carbetocin. Each dose consisted of 3 spray pump actuations in each nostril to deliver a total of 9.6 mg carbetocin. The daily dose of carbetocin was 28.8 mg.
The primary endpoint measured in this trial was change in the total score from Visit 2 to Visit 4 in Hyperphagia in Prader-Willi Syndrome Questionnaire-Responsiveness (HPWSQ-R), which was completed by the parent/caregiver.
1. Clinical Global Impression-Improvement (CGI-I) after treatment at Visit 4.
2. Change from Visit 2 to Visit 4 for the following measurements: • HPWSQ-R hyperphagia behavior, drive, and severity domain scores. • Hyperphagia in Prader-Willi Syndrome Questionnaire-Responsiveness—completed by the clinician (HPWSQ-R-C) total score. • HPWSQ-R-C hyperphagia behavior, drive, and severity domain scores.
3. Change from Visit 1 to Visit 4 for the following measurements: • Children's Yale-Brown Obsessive Compulsive Scale (CY-BOCS) score. • Food Domain of the Reiss Profile.
The primary endpoint was analyzed using an analysis of covariance model with treatment and site as fixed effects and HPWSQ-R total score at Visit 2 (baseline) as a covariate. The last observation carried forward method was used to carry forward non-missing values of HPWSQ-R total score during the phone call assessment (Day 8±1) to impute missing values of HPWSQ-R total score at Visit 4. The treatment group difference in total score between placebo and carbetocin was calculated by subtracting the mean change from baseline in placebo from that in the carbetocin group. A borderline statistically significant difference at the 10% significant level was achieved if the upper limit of the 90% 1-sided confidence interval for the treatment difference was less than zero. […]

## CC[C@H](C)[C@@H]1NC(=O)[C@H](Cc2ccc(O)cc2)NC(=O)[C@@H](N)CSSC[C@@H](C(=O)N2CCC[C@H]2C(=O)N[C@@H](CC(C)C)C(=O)NCC(N)=O)NC(=O)[C@H](CC(N)=O)NC(=O)[C@H](CCC(N)=O)NC1=O [Oxytocin]
[1]
  hV2/hOT selectivity ratio (EC50 hV2/EC50 hOT): 3

## carbetocin
[2]; Day 8, intranasal 28.8 mg/day
  Clinical Global Impression, Least-Squares Mean Change Carbetocin vs. Placebo: −0.9/0.0162
  HPWSQ-R-C Behavior domain score, Least-Squares Mean Change Carbetocin vs. Placebo: −5.4/0.0017
  HPWSQ-R-C Drive domain score, Least-Squares Mean Change Carbetocin vs. Placebo: −3.4/0.0019
  HPWSQ-R-C Severity domain score, Least-Squares Mean Change Carbetocin vs. Placebo: −1.7/0.0061
  HPWSQ-R-C total score, Least-Squares Mean Change Carbetocin vs. Placebo: −10.2/0.0017
  CY-BOCS, Least-Squares Mean Change Carbetocin vs. Placebo: −2.7/0.0956
  Food Domain Score of Reiss Profile, Least-Squares Mean Change Carbetocin vs. Placebo: −3.0/0.0184
  HPWSQ-R Behavior domain score, Least-Squares Mean Change Carbetocin vs. Placebo: −1.9/0.1153
  HPWSQ-R Drive domain score, Least-Squares Mean Change Carbetocin vs. Placebo: −2.1/0.0625
  HPWSQ-R Severity domain score, Least-Squares Mean Change Carbetocin vs. Placebo: −1.1/0.0572
[2]; Day 8, intranasal 9.6 mg three times daily (28.8 mg/day)
  HPWSQ-R total score, Least-Squares Mean Change Carbetocin vs. Placebo: −5.2/0.0632
[2]; Day 15, intranasal 28.8 mg/day
  Clinical Global Impression, Least-Squares Mean Change Carbetocin vs. Placebo: −0.8/0.0233
  HPWSQ-R-C Behavior domain score, Least-Squares Mean Change Carbetocin vs. Placebo: −4.3/0.0068
  HPWSQ-R-C Drive domain score, Least-Squares Mean Change Carbetocin vs. Placebo: −2.6/0.0340
  HPWSQ-R-C Severity domain score, Least-Squares Mean Change Carbetocin vs. Placebo: −2.2/0.0014
  HPWSQ-R-C total score, Least-Squares Mean Change Carbetocin vs. Placebo: −10.5/0.0014
  CY-BOCS, Least-Squares Mean Change Carbetocin vs. Placebo: −6.2/0.0047
  Food Domain Score of Reiss Profile, Least-Squares Mean Change Carbetocin vs. Placebo: −4.4/0.0132
  HPWSQ-R Behavior domain score, Least-Squares Mean Change Carbetocin vs. Placebo: −2.0/0.1172
  HPWSQ-R Drive domain score, Least-Squares Mean Change Carbetocin vs. Placebo: −1.6/0.1436
  HPWSQ-R Severity domain score, Least-Squares Mean Change Carbetocin vs. Placebo: −1.5/0.0248
  HPWSQ-R total score, Least-Squares Mean Change Carbetocin vs. Placebo: −6.7/0.0290
[2]; Day 15 results, P<0.05
  Improvement over placebo treated patients in HPWSQ-R, HPWSQ-R-C, CGI, CY-BOCS and Food Domain Score of Reiss Profile: statistically significant improvement
[1]
  hV2/hOT selectivity ratio (EC50 hV2/EC50 hOT): 244
